In ChEMBL document CHEMBL1201862, “PubChem BioAssay data set” (2004):
Active and inactive are the calls of the source.

Columns and labels:
HEK293 = assay: EBV LMP1 TES2 canonical NF-kB signalling blockers – cell-based, HEK293, luciferase, cherry-pick, dose response (AID 588343); format: functional; settings: Homo sapiens
[1] = target: T1, Histone-lysine N-methyltransferase NSD2 (Homo sapiens, UniProt O96028); format: biochemical
T1 sequence (O96028 whole entry): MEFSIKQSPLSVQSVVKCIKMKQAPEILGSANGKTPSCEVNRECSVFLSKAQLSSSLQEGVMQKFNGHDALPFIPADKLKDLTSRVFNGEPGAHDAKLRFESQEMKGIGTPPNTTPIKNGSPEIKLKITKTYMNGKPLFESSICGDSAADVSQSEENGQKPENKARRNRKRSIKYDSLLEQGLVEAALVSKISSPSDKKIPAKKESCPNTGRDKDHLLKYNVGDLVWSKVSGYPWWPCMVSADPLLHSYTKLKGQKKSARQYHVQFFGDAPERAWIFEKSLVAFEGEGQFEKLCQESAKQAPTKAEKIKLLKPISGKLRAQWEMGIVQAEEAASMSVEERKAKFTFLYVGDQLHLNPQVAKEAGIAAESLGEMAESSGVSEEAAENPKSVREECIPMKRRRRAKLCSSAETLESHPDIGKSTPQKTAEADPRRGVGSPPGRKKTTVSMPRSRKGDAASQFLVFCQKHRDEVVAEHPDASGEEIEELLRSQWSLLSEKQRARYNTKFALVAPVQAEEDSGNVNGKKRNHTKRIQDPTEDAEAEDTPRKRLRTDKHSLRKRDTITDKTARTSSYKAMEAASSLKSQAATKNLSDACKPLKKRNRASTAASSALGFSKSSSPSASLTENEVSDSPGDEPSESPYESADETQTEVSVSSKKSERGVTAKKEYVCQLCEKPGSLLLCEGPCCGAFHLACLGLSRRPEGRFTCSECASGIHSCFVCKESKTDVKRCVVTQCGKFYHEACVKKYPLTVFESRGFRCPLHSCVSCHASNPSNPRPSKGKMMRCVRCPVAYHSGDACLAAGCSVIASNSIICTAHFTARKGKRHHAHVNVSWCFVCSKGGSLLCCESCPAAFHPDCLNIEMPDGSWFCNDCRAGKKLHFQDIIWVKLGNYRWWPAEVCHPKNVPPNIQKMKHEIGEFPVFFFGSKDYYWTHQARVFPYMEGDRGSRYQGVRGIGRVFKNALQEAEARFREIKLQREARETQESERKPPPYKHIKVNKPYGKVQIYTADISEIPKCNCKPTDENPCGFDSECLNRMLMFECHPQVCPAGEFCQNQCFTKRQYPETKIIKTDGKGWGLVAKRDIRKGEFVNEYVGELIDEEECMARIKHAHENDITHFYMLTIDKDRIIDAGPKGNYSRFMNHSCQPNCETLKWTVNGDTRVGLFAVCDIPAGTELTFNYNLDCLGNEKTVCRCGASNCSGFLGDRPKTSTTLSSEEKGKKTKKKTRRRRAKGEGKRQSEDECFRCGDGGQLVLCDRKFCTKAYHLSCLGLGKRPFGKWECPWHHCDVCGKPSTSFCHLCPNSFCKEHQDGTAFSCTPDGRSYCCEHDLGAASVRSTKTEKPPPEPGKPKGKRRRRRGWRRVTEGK

[2] = target: T2, Heat shock factor protein 1 (Mus musculus, UniProt P38532); assay: enhancement of HSF1-driven luciferase signal – cell-based, NIH3T3, luminescence, dose retest, confirmation (AID 435004); format: functional;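 note: stress induced by proteasome inhibitor MG132 added 30 min after compound; luciferase reporter driven by HSF1 response element in NIH3T3 cells; actives raise luminescence as potentiators of the MG132 stress response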
T2 sequence (P38532 whole entry): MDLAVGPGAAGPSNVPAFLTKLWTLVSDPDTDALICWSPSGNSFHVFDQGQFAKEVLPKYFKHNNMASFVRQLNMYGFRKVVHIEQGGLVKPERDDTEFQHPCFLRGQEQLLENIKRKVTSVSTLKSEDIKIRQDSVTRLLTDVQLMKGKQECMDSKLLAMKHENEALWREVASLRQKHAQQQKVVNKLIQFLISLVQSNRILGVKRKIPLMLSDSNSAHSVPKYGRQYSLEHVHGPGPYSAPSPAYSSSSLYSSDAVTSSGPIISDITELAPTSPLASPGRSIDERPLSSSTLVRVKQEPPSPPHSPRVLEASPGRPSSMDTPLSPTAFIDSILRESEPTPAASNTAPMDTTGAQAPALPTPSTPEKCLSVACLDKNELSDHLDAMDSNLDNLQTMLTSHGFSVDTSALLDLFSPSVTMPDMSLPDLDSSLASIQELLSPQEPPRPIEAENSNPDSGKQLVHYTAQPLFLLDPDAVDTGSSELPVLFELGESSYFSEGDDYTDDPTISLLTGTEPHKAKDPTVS

INS1 = assay: INS-1E survival protection against cytokine death – cell-based, luminescence, retest, dose response (AID 449756); format: functional; settings: Rattus norvegicus;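 note: cell death triggered by IL-1 beta plus TNF-alpha plus IFN-gamma mixture; protective hits raise ATP signal compared with cytokine alone wells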
[3] = target: Heat shock protein HSP 90-alpha (Homo sapiens, UniProt P07900); format: functional, organism-based
[4] = NIH-3T3 fibroblast cytotoxicity, dose response, cytotoxicity control, cell-based, fluorescence, Alamar Blue, secondary assay (AID 2327); format: functional;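 note: NIH-3T3 mouse fibroblasts cultured with fluconazole at 8 µg/mL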
Large T antigen = Large T antigen (Simian virus 40, UniProt P03070); format: functional, Betapolyomavirus macacae;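 note: Confirmatory-stage PubChem screen for compounds that inhibit SV40 T antigen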
Large T antigen, sequence (P03070 whole entry): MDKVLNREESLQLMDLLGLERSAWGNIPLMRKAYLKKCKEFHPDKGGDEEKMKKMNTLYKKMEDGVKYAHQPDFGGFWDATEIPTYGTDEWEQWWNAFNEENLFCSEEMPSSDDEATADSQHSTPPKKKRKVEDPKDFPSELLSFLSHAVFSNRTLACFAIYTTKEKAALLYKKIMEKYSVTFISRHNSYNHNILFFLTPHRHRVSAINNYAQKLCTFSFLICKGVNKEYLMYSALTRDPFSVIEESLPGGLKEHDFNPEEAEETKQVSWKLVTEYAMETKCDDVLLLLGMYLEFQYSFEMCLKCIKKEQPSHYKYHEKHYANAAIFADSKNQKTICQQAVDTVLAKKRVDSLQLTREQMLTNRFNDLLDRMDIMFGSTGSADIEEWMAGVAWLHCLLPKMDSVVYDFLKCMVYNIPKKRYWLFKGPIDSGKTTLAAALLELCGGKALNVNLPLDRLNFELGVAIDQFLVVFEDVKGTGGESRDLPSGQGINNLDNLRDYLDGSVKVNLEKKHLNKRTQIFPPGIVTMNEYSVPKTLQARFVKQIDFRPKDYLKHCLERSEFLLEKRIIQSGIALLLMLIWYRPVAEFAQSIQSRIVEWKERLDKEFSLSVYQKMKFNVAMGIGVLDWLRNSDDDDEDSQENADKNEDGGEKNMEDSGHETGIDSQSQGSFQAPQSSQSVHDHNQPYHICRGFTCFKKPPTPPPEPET

cells = format: functional
[5] = THP-1 cell cytotoxicity, dose response, cytotoxicity control for non-replicating M. tuberculosis project (AID 489025); format: functional
[6] = blockers of bursicon-stimulated LGR2 cAMP reporter – cell-based, HEK293, CRE-luciferase reporter, cherry pick, set 2, dose response (AID 743343); format: functional;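 note: transfected cells were stimulated with diluted bursicon conditioned medium after compound addition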
[7] = Luminescence Cell-Based Dose Response HTS to Identify Inhibitors of 5'UTR Stem-Loop Driven Prion Protein mRNA Translation in H4 Neuroglioblastoma Cells. [Related pubchem assays: 1827 (Project Summary), 1813 (Primary HTS)]; format: functional
[8] = alpha-synuclein stem-loop luciferase translation blockers – H4 neuroglioma cells, luminescence, confirmation (AID 1988); format: functional, cell-based
[9] = target: T2, Heat shock factor protein 1; assay: decrease of HSF1-responsive luciferase luminescence – cell-based, NIH3T3, dose retest, confirmation (AID 2382); format: functional;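 note: NIH3T3 fibroblasts with HSF1-driven luciferase reporter stressed by proteasome inhibitor MG132; luminescence from HSF1-driven luciferase expression after 8 hours of MG132 stress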
[10] = target: T3, Rac GTPase-activating protein 1 (Homo sapiens, UniProt Q9H0H5); assay: blockers of MgcRacGAP-driven Rac1 GTP hydrolysis – biochemical, ADP Hunter fluorescence, primary and confirmatory, confirmation (AID 624330); format: functional
T3 sequence (Q9H0H5 whole entry): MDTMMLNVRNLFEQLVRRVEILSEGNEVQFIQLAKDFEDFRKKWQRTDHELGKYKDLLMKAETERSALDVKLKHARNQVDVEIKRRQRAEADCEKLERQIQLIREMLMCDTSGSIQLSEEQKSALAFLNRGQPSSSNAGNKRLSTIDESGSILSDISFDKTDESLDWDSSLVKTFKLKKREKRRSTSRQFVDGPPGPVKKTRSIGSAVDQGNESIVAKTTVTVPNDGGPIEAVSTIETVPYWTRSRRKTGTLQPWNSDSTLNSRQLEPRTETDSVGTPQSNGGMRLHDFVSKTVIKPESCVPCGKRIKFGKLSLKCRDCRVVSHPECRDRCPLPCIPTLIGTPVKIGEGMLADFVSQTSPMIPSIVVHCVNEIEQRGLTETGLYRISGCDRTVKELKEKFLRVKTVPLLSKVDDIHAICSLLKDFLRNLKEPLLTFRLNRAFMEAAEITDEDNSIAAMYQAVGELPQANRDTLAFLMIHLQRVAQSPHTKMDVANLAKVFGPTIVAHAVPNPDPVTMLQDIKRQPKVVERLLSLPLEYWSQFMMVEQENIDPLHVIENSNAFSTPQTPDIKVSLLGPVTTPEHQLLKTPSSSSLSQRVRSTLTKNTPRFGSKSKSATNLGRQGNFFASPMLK

[11] = HIV-1 AD8 envelope cell-cell fusion blockers – cherry-pick, dose response (AID 652062); format: functional, cell-based;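 note: luciferase signal from cell-cell fusion driven by HIV-1 clade B AD8 Env; potency is for inhibitors of fusion seen as a drop in luminescence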
[12] = blockers of HIV-1 envelope-mediated cell-cell fusion – cherry-pick, dose response (AID 652057); format: functional, cell-based
[13] = target: T4, RNA-binding protein pos-1 (Caenorhabditis elegans, UniProt G5EF15); assay: disruptors of C. elegans POS-1 RNA interaction – biochemical, fluorescence polarization, dose response (AID 1964);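 note: purified POS-1 fused to maltose binding protein made in E. coli; potency of compounds blocking POS-1 binding to fluorescent RNA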
T4 sequence (G5EF15 whole entry): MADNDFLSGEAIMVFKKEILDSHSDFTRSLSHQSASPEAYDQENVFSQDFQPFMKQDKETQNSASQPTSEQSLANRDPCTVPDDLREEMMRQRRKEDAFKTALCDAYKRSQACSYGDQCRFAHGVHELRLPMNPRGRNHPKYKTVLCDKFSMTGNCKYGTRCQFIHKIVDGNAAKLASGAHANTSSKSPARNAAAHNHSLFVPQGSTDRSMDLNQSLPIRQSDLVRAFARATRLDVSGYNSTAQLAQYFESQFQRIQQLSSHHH

[14] = target: T5, Zinc finger protein mex-5 (Caenorhabditis elegans, UniProt Q9XUB2); assay: potency of MEX-5 RNA-binding blockers – biochemical, C. elegans, fluorescence polarization, dose response (AID 1960)
T5 sequence (Q9XUB2 whole entry): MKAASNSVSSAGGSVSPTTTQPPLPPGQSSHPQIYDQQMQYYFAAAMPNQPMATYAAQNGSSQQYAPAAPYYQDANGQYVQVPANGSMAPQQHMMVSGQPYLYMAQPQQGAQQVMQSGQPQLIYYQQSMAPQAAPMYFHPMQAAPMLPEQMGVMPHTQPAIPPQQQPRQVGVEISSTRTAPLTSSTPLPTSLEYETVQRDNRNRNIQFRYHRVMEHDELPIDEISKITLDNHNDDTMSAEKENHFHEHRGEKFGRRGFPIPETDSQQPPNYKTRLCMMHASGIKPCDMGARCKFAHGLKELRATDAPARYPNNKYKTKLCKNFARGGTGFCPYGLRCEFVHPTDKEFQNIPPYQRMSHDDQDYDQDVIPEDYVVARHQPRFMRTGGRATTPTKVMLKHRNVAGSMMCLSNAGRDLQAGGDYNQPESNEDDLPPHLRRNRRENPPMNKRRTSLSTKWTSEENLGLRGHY

[15] = growth inhibition of PfATP4-mutant resistant parasites – NITD609-resistant line, SYBR Green, dry powder, dose response (AID 1159571); format: functional, cell-based;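 note: parasites synchronized at ring stage by sorbitol before testing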
[16] = Dd2 malaria parasite growth inhibition potency – SYBR Green, dry powder samples, dose response (AID 1159566); format: functional, cell-based;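 note: potency for growth inhibition with lower SYBR green DNA signal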
[17] = P. falciparum Dd2 growth inhibitors, dose response, SYBR Green, cherry-picked samples (AID 1159567); format: functional, cell-based
[18] = growth inhibition of yeast DHODH-expressing 3D7 parasites – SYBR Green, dry powder samples, dose response (AID 1159570); format: functional, cell-based;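 note: parasite growth measured after 72 hours of compound exposure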

CN(C1CCCCC1)S(=O)(=O)c1ccc(C(=O)N2CCN(c3nc4ccccc4s3)CC2)cc1
AC50 (HEK293): 2.85 µM (active)

CCN(CC)CCCn1c(=S)[nH]c2ncccc2c1=O
AC50 [1]: 9.8 µM (active)
EC50 [2]: > 260 µM (inactive)

N#Cc1c2ccc([N+](=O)[O-])cc2[n+]([O-])n1-c1ccccc1
AC50 (INS1): 3.15 µM (active)
AC50 [3]: 2.86 µM (active)

O=c1cc(CN2CCN(Cc3ccccc3)CC2)c2ccc(O)c(O)c2o1
EC50 [4]: > 160 µM (inactive)
IC50 (Large T antigen): 4.91 µM (active)

O=[N+]([O-])c1ccc(CNc2cccc(Cl)c2)s1
IC50 (cells): 48.6 µM (active)
CC50 [5]: > 40 µM (active)

O=C(CC1CS(=O)(=O)CC1CC(=O)Nc1ccc2c(c1)OCCO2)Nc1ccc2c(c1)OCCO2 (stereo not drawn)
AC50 [6]: 45.8 µM (active)

CCc1nn2cc(-c3ccccc3)nc2s1
AC50 (HEK293): 2.06 µM (active)

CCn1nnc2cc(C(=O)NCCc3ccccc3F)ccc21
EC50 [7]: 4.08 µM (active)
AC50 (HEK293): 3.14 µM (active)
EC50 [8]: 5.03 µM (active)

Cc1cc(C)nc(NS(=O)(=O)c2ccc(-n3cccc3)cc2)n1
AC50 [1]: > 20 µM (inactive)
EC50 [9]: > 195 µM (not active)

COc1ccc(/C=C2/C(=O)N(Cc3ccco3)C(=O)N(C(C)C)C2=O)cc1
IC50 (Large T antigen): 80.6 µM (active)

Cc1nc(C)c(C(=O)Nc2ncc([N+](=O)[O-])s2)o1
EC50 [7]: 10.2 µM (inconclusive)
AC50 (HEK293): 3.12 µM (active)
AC50 [1]: > 20 µM (inactive)
EC50 [8]: 8.92 µM (inconclusive)

CN1C(=O)C(=C(Nc2ccc(F)cc2)c2ccccc2Cl)C(=O)N(C)C1=O
AC50 [3]: 3.17 µM (active)

O=C(N/N=C/C(Br)=C/c1ccccc1)c1ccncc1
IC50 (cells): 0.61 µM (active)
CC50 [5]: > 40 µM (active)

CN(c1ccc(O)cc1)c1ccc([N+](=O)[O-])c2nonc12
AC50 [1]: > 20 µM (inactive)
IC50 [10]: 135 µM (active)

CC(C)COC(=O)N(C)C[C@H]1OCc2ccccc2-c2c(n(C)c3ccccc23)C(=O)N([C@H](C)CO)C[C@@H]1C
AC50 [11]: 304 nM (active)
AC50 [12]: < 260 nM (active)

Cc1ccc(/C=N/Nc2[nH]cnc3ncnc2-3)cc1
EC50 [13]: > 300 µM (not active)
EC50 [14]: > 300 µM (inconclusive)

O=C(N/N=C/c1ccc(O)c(O)c1)c1cccc(S(=O)(=O)N2CCCC2)c1
IC50 (Large T antigen): 4.72 µM (active)

COc1ccc2c3c([nH]c2c1)[C@H](CO)N(Cc1cccc(F)c1)CC31CCN(Cc2ccccn2)CC1
AC50 [15]: 0.922 µM (active)
AC50 [16]: 0.906 µM (active)
AC50 [17]: 1.07 µM (active)
AC50 [18]: 0.902 µM (active)

O=C(C1CCCC1)N1CC2(C1)[C@@H](c1ccccc1)[C@H](CO)N2Cc1ccc(Cl)cc1
AC50 [15]: 3.62 µM (active)
AC50 [16]: 1.98 µM (active)
AC50 [17]: 1.49 µM (active)
AC50 [18]: 3.13 µM (active)

COc1ccccc1S(=O)(=O)N(C)C[C@H]1Oc2cc(/C=C/c3ccccc3)ccc2S(=O)(=O)N([C@H](C)CO)C[C@@H]1C
AC50 [15]: 1.78 µM (active)
AC50 [16]: 1.9 µM (active)
AC50 [17]: 2.43 µM (active)
AC50 [18]: 2.34 µM (active)
